Test results taken from article PMC9318694 (Molecules, 2022).
Where two headings read alike, the source gives them in different places.

Assays:
[1] = biological target: T1, D2R (Homo sapiens, UniProt P14416); experiment: HTRF competitive binding screening of virtual hits at 10 µM (normalized decrease in fluorescence); conditions: for Normalized Decrease in Fluorescence ± SD: Table 3, 10 µM, n = 4, normalized to the control; for NDF (normalized decreased fluorescence) ± SD: Table S9, all selected virtual hits, n = 4, 10 µM
T1 sequence (P14416 whole entry): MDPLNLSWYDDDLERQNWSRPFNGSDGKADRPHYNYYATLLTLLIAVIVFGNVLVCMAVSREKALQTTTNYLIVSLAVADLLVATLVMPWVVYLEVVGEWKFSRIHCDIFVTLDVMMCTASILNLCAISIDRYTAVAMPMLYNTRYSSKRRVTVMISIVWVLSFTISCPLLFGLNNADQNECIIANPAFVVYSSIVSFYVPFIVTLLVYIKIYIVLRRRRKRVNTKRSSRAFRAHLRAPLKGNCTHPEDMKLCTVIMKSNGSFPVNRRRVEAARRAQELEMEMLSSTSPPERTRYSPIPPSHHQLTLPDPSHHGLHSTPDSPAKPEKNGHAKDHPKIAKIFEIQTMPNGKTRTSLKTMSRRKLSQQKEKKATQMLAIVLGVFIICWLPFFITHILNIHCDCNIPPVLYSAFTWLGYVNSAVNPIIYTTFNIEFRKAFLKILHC

[2] = biological target: T1, D2R; conditions: cited from earlier work
[3] = biological target: T1, D2R; experiment: HTRF KI determination of the selected ligands; format: binding; conditions: for Fold Difference in comparison to the determined KI of dopamine / Ki: Table 4; for Ki: n = 6
Experimental: The selected compounds were investigated in vitro to determine their binding affinities (KI values) at D2R.
All the HTRF assays were performed using a Tecan Spark plate reader. The respective settings were specifically modified and optimized for the determination of D2R ligand-binding affinities. […] Fluorophores were excited at 320 nm. A Dichroic 510 mirror was used, while lag and integration times of 100 and 400 µs were applied, respectively. Flashes were set to 75. Electronic gain was automatically optimized, while the z-position was optimized based on the well with the highest expected signal. […] The first plate was used to determine the gain and the z-position. Subsequently, the determined values were set manually for the second plate to enable direct comparison between the different plates.
The cells were stored in liquid nitrogen until further use. […] Bromocriptine mesylate (50 mg; CAYM14598-50) was acquired from VWR. The assay was conducted according to the standard operation protocol (SOP) available from PerkinElmer/cisbio. The 96-well plates were incubated at room temperature for 2 h. The 96-well plates were read on a Tecan Spark plate reader (the settings are shown in Section 4.5). The respective concentrations of the dilution series were performed in triplicates. In total, KD determination was performed three times.
The materials described in 4.6 were also used during KI determination of the ligands selected after screening. […] KI was determined following the SOP available at PerkinElmer/cisbio. The 96-well plates were incubated at room temperature in the dark for 2 h. The 96-well plates were read on a Tecan Spark plate reader (the settings are shown in Section 4.5). In total, KI determination was performed twice.

[4] = Table S2, data set of inactives, radio-ligand binding (RLB) assays, ref ChEMBL, [71]-[92], read-out: KI

| Normalized Decrease in Fluorescence ± SD [1] | NDF (normalized decreased fluorescence) ± SD [1] | Compound | Ki [2, 4] | also measured |
| --- | --- | --- | --- | --- |
| 9.44 ± 5.97 | – | CN1CCc2cccc3c2[C@H]1Cc1ccc(O)c(O)c1-3 [Compound 1, Apomorphine] | – | – |
| – | 0.84 ± 0.23 | CC/N=C1/SC(CC(=O)Nc2ccccc2C(F)(F)F)C(=O)N1CC (stereo not shown) [Compound 11] | – | – |
| – | 1.05 ± 0.50 | CC1CC(C)CN(CCC(=O)Nc2ccc(F)c(F)c2)C1 (stereo not shown) [Compound 12] | – | – |
| 40.40 ± 1.39 | – | CN1CCN(C2Cc3ccc(O)cc3Sc3ccc(Cl)cc32)CC1 (stereo not shown) [Compound 14] | – | activity (KI range in words) [3]: nanomolar; Fold Difference in comparison to the determined KI of dopamine [3]: 2700; Ki [3]: 0.004 µM |
| 3.99 ± 2.58 | 3.99 ± 2.58 | NS(=O)(=O)c1ccc(CCNCc2ccc(-c3cc(Cl)ccc3Cl)o2)cc1 [Compound 15] | – | activity (KI range in words) [3]: micromolar; Fold Difference in comparison to the determined KI of dopamine [3]: 2.6; Ki [3]: 4.31 µM |
| 15.74 ± 18.15 | 15.74 ± 18.15 | CCN(CCC(=O)Nc1cccc(OC)c1)Cc1ccccc1 [Compound 16] | – | Fold Difference in comparison to the determined KI of dopamine [3]: 1.1; Ki [3]: 10 µM |
| 8.18 ± 3.62 | 8.18 ± 3.62 | O=C(CCN1CCN(c2ccccc2F)CC1)Nc1cccc(F)c1 [Compound 17] | – | activity (KI range in words) [3]: micromolar; Fold Difference in comparison to the determined KI of dopamine [3]: 9.0; Ki [3]: 1.24 µM |
| 10.85 ± 4.93 | 10.85 ± 4.93 | O[C@H](CNCCNc1ccc(C(F)(F)F)cn1)CSc1ccc(F)cc1 [Compound 18] | – | activity (KI range in words) [3]: micromolar; Fold Difference in comparison to the determined KI of dopamine [3]: 4.2; Ki [3]: 2.63 µM |
| 22.08 ± 6.62 | 22.08 ± 6.62 | NC(=O)c1ccccc1OCCCN1CCN(c2ccccc2)CC1 [Compound 19] | – | activity (KI range in words) [3]: submicromolar; Fold Difference in comparison to the determined KI of dopamine [3]: 34.7; Ki [3]: 0.32 µM |
| 38.69 ± 2.56 | – | O=C(CCCN1CC=C(n2c(=O)[nH]c3ccccc32)CC1)c1ccc(F)cc1 [Droperidol, droperidol] | – | – |
| 9.21 ± 3.80 | – | c1cnc(N2CCN(Cc3ccc4c(c3)OCO4)CC2)nc1 [Piribedil, piribedil] | – | – |
| 30.65 ± 6.79 | – | CCN1CCC[C@H]1CNC(=O)c1cc(S(N)(=O)=O)ccc1OC [Sulpiride, (S)-(−)-sulpiride] | – | – |
| – | 1.02 ± 0.36 | SC144 | – | – |

Second part, the compound before the results:

| Compound | Normalized Decrease in Fluorescence ± SD [1] | NDF (normalized decreased fluorescence) ± SD [1] | Ki [2, 4] | also measured |
| --- | --- | --- | --- | --- |
| CC(C)C[C@H]1C(=O)N2CCC[C@H]2[C@]2(O)O[C@](NC(=O)[C@@H]3C=C4c5cccc6[nH]c(Br)c(c56)C[C@H]4N(C)C3)(C(C)C)C(=O)N12 [Compound 2, Bromocriptine] | 39.10 ± 1.31 | – | – | Ki [2]: 0.0009 µM |
| C=CC1CN2CCC1CC2C(O)c1ccnc2ccc(O)cc12 (stereo not shown) [Compound 10] | – | 1.13 ± 0.37 | – | – |
| COc1cccc(CCc2ccccc2OCCCCN2CCN(c3ncccn3)CC2)c1 [SC117, 2-[4-[4-[2-[2-(3-methoxyphenyl)ethyl]phenoxy]butyl]piperazin-1-yl]pyrimidine] | – | – | 854 µM | – |
| COc1cccc(CCc2ccccc2OCCCCCN2CCN(c3ncccn3)CC2)c1 [SC118, 2-[4-[5-[2-[2-(3-methoxyphenyl)ethyl]phenoxy]pentyl]piperazin-1-yl]pyrimidine] | – | – | > 1000 µM | – |
| COc1cccc(CCc2ccccc2OCCCCCN2CCN(c3ccc(F)cc3)CC2)c1 [SC119, 1-(4-fluorophenyl)-4-[5-[2-[2-(3-methoxyphenyl)ethyl]phenoxy]pentyl]piperazine] | – | – | 847 µM | – |
| COc1cccc(CCc2ccccc2OCCN2CCN(c3ccccc3OC)CC2)c1 [SC120, 1-(2-methoxyphenyl)-4-[2-[2-[2-(3-methoxyphenyl)ethyl]phenoxy]ethyl]piperazine] | – | – | 427 µM | – |
| COc1cccc(CCc2ccccc2OCCN2CCN(c3cccc(Cl)c3)CC2)c1 [SC121, 1-(3-chlorophenyl)-4-[2-[2-[2-(3-methoxyphenyl)ethyl]phenoxy]ethyl]piperazine] | – | – | > 1000 µM | – |
| COc1cccc(CCc2ccccc2OCCCCN2CCN(c3ccccc3OC)CC2)c1 [SC122, 1-(2-methoxyphenyl)-4-[4-[2-[2-(3-methoxyphenyl)ethyl]phenoxy]butyl]piperazine] | – | – | 67 µM | – |
| COc1cccc(CCc2ccccc2OCCCN2CCN(C)CC2)c1 [SC123, 1-[3-[2-[2-(3-methoxyphenyl)ethyl]phenoxy]propyl]-4-methylpiperazine] | – | – | 565 µM | – |
| COc1cccc(CCc2ccccc2OCCCCCN2CCc3ccccc3C2)c1 [SC124, 2-[5-[2-[2-(3-methoxyphenyl)ethyl]phenoxy]pentyl]-3,4-dihydro-1H-isoquinoline] | – | – | > 1000 µM | – |
| COc1cccc(CCc2ccccc2OCCCCCN2CCc3cc(OC)c(OC)cc3C2)c1 [SC125, 6,7-dimethoxy-2-[5-[2-[2-(3-methoxyphenyl)ethyl]phenoxy]pentyl]-3,4-dihydro-1H-isoquinoline] | – | – | > 1000 µM | – |
| COc1cccc(CCc2ccccc2OCCN2CCc3ccccc3C2)c1 [SC126, 2-[2-[2-[2-(3-methoxyphenyl)ethyl]phenoxy]ethyl]-3,4-dihydro-1H-isoquinoline] | – | – | – | Ki ([2]; read-out: KI): > 1000 µM |
| c1ccc(CCC2CN(Cc3nc4ccccc4[nH]3)CCO2)cc1 (stereo not shown) [SC127, 4-(1H-benzimidazol-2-ylmethyl)-2-(2-phenylethyl)morpholine] | – | – | > 100 µM | – |
